Values belong to the compound of their own block, whether it stands above or below them.
Columns and labels:
[1] = test system: SKOV3; assay: Antiproliferation assay, ovarian cancer cells; assay type: cell-based; settings: Homo sapiens, SK-OV-3; ovarian cancer cell proliferation
Procedure: (§1) The pancreatic cancer cell lines BxPc-3, HupT3, MiaPaCa-2, Panc 04.03, and SU86.86 were obtained from ATCC (Rockville, Md.) and were grown in medium (DMEM or RPMI) containing 10% fetal calf serum and L-glutamine. Pancreatic cancer cells were plated out in duplicate into 6-wells of a 96-well microtiter plate at 2.5−4×10^3 cells per well. Four-hours post plating, individual wells were treated with diluent (DMSO) or varying concentrations of commercial compounds, AR-A014418 and SB216763, or the indicated GSK inhibitors of this invention from a concentration of 1 nM to 50 microM. […] The IC50s were calculated using XLfit (IDBS Limited, Guildford, UK).
(§2) Similar antiproliferation assays were performed using ovarian cancer cells. Compound 40 is of particular interest for inhibition of ovarian cancer cell proliferation.

[2] = test system: OVCA432; assay: Antiproliferation assay, ovarian cancer cells; assay type: cell-based; settings: ovarian cancer cell proliferation
Procedure: as §1, §2

[3] = molecular target: CDK-2/cyclinA (Homo sapiens, UniProt P24941); assay: CDK panel (Reaction Biology); assay type: biochemical; settings: tested at Reaction Biology, Inc.
[4] = molecular target: CDK-5/P35 (Homo sapiens, UniProt Q00535); assay: CDK panel (Reaction Biology); assay type: biochemical; settings: tested at Reaction Biology, Inc.
[5] = molecular target: CDK-9/cyclinT1 (Homo sapiens, UniProt P50750); assay: CDK panel (Reaction Biology); assay type: biochemical; settings: tested at Reaction Biology, Inc.
[6] = molecular target: T1, recombinant human His6-GSK-3β (Homo sapiens, UniProt P49841); assay: GSK-3β kinase assay, [γ32P] transfer to primed glycogen synthase peptide; assay type: biochemical; settings: 10 μM ATP; 10 μM pGSM peptide; 30 minutes at 30° C.; read-out: IC50 (nM), GSK-3β inhibition;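 further: phosphate incorporation quantified by liquid scintillation counting of the filters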
T1 construct: His6; purchased EMD Biosciences

[7] = molecular target: CDK-4/cyclinD1 (Homo sapiens, UniProt P11802); assay: CDK panel (Reaction Biology); assay type: biochemical; settings: tested at Reaction Biology, Inc.
[8] = test system: M-17 cancer cells co-transfected with α-Syn and DAT; assay: Neuroprotection against MPP+-mediated cell death, MTT assay; assay type: cell-based; settings: MPP+ 48 h, inhibitor 0.1-10,000 nM
Source text: GSK-3β inhibitors are examined for their capacity to interfere with two of the regulated processes playing an important role in the MPP+-induced model (MPP+ is N-methyl-4-phenylpyridinium) of neurodegeneration: Tau phosphorylation at the PHF-1 binding site (PHF-Tau; epitope which belongs to AD-like Tau antigenicity) and α-Syn-induced toxicity. Compounds are screened in in vitro assays, where their neuroprotective effects to protect against MPP+-mediated cell death was estimated. The cell assays are conducted as follows: M-17 cancer cells are co-transfected with α-Syn and DAT at a 3:1 DNA mimicking that found in Substantia nigra ratio, as we have described previously (Wersinger, C., et al The FASEB journal 2003, 17, 2151-2153). Cells are treated with MPP^+ for 48 h in the absence and presence of increasing amounts of GSK-3β inhibitors [0.1-10,000 nM], and cell death was measured by MTT (Thiazolyl Blue Tetrazolium Bromide) assays. Under these conditions, MPP^+ caused ˜80% cell death.

[9] = molecular target: CDK-5/P25 (Homo sapiens, UniProt Q00535); assay: CDK panel (Reaction Biology); assay type: biochemical; settings: tested at Reaction Biology, Inc.
[10] = molecular target: CDK-3/cyclinE (Homo sapiens, UniProt Q00526); assay: biochemical
[11] = molecular target: CDK-2/cyclinE (Homo sapiens, UniProt P24941); assay: CDK-2/CyclinE inhibition (Reaction Biology); assay type: biochemical; settings: tested at Reaction Biology, Inc.
[12] = molecular target: CDK-1/cyclinB (Homo sapiens, UniProt P06493); assay: CDK panel (Reaction Biology); assay type: biochemical; settings: tested at Reaction Biology, Inc.
[13] = molecular target: CDK-6/cyclinD3 (Homo sapiens, UniProt Q00534); assay: CDK panel (Reaction Biology); assay type: biochemical; settings: tested at Reaction Biology, Inc.
[14] = molecular target: c-Abl (Homo sapiens, UniProt P00519); assay: Kinase panel (Novartis); assay type: biochemical
[15] = molecular target: IGF-1R (Homo sapiens, UniProt P08069); assay: Kinase panel (Novartis); assay type: biochemical
[16] = molecular target: Flt-3 (Homo sapiens, UniProt P36888); assay: Kinase panel (Novartis); assay type: biochemical
[17] = molecular target: PKCα (Homo sapiens, UniProt P17252); assay: Kinase panel (Novartis); assay type: biochemical
[18] = molecular target: c-Abl-T3151 (Homo sapiens, UniProt P00519, T315I); assay: Kinase panel (Novartis); assay type: biochemical
[19] = molecular target: CDK2/A (Homo sapiens, UniProt P24941); assay: Kinase panel (Novartis); assay type: biochemical
[20] = molecular target: JAK-2 (Homo sapiens, UniProt O60674); assay: Kinase panel (Novartis); assay type: biochemical
[21] = molecular target: FGFR-3-K650E (Homo sapiens, UniProt P22607, K650E); assay: Kinase panel (Novartis); assay type: biochemical
[22] = test system: MIAPaCa-2; assay: Antiproliferation MTS assay, pancreatic cancer cells; assay type: cell-based; settings: Homo sapiens
[23] = molecular target: b-Raf-V599E (Homo sapiens, UniProt P15056, V600E); assay: Kinase panel (Novartis); assay type: biochemical
[24] = molecular target: Ret (Homo sapiens, UniProt P07949); assay: Kinase panel (Novartis); assay type: biochemical
[25] = test system: C57BL/6J mice; assay: Amphetamine/chlordiazepoxide hyperactivity model of mania, open field locomotor activity; assay type: in vivo; settings: 5-ING-135 50 mg/kg, 5 min pretreatment; amphetamine 4 mg/kg + chlordiazepoxide 2.5 mg/kg; 60 min
Procedure: Hyperactivity models are often used to mimic the mania associated with bipolar disorder.
Certain benzofuran-based ligands of this invention were studied in a novel mouse model of mania that has recently been validated with several clinically effective mood stabilizers. […] Mice were then injected with amphetamine (4 mg/kg) or amphetamine (4 mg/kg) and chlordiazepoxide (2.5 mg/kg) and locomotor activity was monitored for 60 min. The open field is a square box surrounded by an array of infra-red beams and their behavior is automatically recorded for 60 minutes in the open field test chamber (10.75″×10.75″×8″H with infra-red (I/R) array, model ENV 510, MED Associates). After this period the animals were returned to their home cages and then to the main colony.
Control treatments are as indicated. FIG. 1B illustrates similar locomotion activity data of treated mice measured in cm over 5 minute intervals for 60 minutes.

[26] = molecular target: KDR (Homo sapiens, UniProt P35968); assay: Kinase panel (Novartis); assay type: biochemical
[27] = molecular target: EphB4 (Homo sapiens, UniProt P54760); assay: Kinase panel (Novartis); assay type: biochemical
[28] = molecular target: c-Met (Homo sapiens, UniProt P08581); assay: Kinase panel (Novartis); assay type: biochemical
[29] = molecular target: HER-1 (Homo sapiens, UniProt P00533); assay: Kinase panel (Novartis); assay type: biochemical
[30] = test system: HupT3; assay: Antiproliferation MTS assay, pancreatic cancer cells; assay type: cell-based; settings: Homo sapiens, HuP-T3, as reported in Gaisina et al. (2009) J. Med. Chem. 52(7), 1853-1863
[31] = molecular target: FAK (Homo sapiens, UniProt Q05397); assay: Kinase panel (Novartis); assay type: biochemical
[32] = molecular target: c-src (Homo sapiens, UniProt P12931); assay: Kinase panel (Novartis); assay type: biochemical
[33] = Passage of the brain-blood barrier in animal models; assay type: in vivo; settings: as assessed in animal models
[34] = molecular target: T2, PDK1 (Homo sapiens, UniProt O15530); assay: Kinase panel (Novartis); assay type: biochemical
T2 sequence (O15530 1-556): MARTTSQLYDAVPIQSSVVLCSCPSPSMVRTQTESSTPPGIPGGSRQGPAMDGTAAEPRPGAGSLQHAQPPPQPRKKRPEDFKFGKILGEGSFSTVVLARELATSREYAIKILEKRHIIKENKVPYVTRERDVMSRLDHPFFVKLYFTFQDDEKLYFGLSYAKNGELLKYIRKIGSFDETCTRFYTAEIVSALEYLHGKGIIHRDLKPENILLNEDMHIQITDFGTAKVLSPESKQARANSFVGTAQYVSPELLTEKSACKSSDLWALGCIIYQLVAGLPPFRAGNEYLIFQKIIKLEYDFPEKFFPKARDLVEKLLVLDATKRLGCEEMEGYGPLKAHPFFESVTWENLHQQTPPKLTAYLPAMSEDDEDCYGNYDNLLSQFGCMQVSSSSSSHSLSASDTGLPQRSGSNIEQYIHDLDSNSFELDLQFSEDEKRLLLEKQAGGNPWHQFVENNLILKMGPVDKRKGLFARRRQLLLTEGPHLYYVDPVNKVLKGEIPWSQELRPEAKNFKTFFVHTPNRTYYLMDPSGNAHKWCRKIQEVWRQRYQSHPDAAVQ

[35] = molecular target: Axl (Homo sapiens, UniProt P30530); assay: Kinase panel (Novartis); assay type: biochemical
[36] = molecular target: JNK1 (Homo sapiens, UniProt P45983); assay: Kinase panel (Novartis); assay type: biochemical
[37] = molecular target: Tek (Homo sapiens, UniProt Q02763); assay: Kinase panel (Novartis); assay type: biochemical

T1 sequence (P49841 whole entry): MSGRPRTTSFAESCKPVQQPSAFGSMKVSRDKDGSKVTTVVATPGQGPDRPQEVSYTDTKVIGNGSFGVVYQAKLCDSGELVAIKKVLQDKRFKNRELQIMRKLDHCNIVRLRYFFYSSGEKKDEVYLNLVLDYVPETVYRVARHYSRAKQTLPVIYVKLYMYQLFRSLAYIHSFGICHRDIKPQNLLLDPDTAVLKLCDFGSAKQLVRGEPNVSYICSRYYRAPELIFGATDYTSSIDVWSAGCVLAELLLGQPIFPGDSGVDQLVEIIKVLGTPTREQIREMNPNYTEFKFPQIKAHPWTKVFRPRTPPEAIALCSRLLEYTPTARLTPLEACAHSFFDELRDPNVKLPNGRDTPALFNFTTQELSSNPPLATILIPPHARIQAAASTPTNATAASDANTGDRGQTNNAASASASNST
CDK-1/cyclinB, sequence (P06493 whole entry, species assumed): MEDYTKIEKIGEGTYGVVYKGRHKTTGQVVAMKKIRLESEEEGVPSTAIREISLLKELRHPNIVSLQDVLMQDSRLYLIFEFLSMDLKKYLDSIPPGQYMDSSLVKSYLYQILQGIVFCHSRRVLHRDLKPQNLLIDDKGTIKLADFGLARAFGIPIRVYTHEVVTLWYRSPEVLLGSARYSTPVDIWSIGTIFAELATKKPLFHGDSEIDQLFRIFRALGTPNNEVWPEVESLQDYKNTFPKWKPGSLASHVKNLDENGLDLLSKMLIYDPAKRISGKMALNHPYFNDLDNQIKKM
CDK-1/cyclinB, sequence (P14635 whole entry partner, species assumed): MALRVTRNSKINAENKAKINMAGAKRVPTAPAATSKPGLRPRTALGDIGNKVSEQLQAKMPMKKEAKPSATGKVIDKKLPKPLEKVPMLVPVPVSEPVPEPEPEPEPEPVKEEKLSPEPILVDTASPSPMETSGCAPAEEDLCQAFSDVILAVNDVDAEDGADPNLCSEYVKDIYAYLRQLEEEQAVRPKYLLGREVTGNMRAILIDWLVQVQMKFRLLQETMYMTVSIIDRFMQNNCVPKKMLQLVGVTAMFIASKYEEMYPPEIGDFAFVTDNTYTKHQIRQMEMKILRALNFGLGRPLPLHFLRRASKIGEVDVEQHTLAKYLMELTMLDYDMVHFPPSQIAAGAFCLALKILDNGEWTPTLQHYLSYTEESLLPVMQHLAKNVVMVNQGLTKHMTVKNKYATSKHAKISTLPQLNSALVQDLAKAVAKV
Ret, sequence (P07949 29-1114, species assumed): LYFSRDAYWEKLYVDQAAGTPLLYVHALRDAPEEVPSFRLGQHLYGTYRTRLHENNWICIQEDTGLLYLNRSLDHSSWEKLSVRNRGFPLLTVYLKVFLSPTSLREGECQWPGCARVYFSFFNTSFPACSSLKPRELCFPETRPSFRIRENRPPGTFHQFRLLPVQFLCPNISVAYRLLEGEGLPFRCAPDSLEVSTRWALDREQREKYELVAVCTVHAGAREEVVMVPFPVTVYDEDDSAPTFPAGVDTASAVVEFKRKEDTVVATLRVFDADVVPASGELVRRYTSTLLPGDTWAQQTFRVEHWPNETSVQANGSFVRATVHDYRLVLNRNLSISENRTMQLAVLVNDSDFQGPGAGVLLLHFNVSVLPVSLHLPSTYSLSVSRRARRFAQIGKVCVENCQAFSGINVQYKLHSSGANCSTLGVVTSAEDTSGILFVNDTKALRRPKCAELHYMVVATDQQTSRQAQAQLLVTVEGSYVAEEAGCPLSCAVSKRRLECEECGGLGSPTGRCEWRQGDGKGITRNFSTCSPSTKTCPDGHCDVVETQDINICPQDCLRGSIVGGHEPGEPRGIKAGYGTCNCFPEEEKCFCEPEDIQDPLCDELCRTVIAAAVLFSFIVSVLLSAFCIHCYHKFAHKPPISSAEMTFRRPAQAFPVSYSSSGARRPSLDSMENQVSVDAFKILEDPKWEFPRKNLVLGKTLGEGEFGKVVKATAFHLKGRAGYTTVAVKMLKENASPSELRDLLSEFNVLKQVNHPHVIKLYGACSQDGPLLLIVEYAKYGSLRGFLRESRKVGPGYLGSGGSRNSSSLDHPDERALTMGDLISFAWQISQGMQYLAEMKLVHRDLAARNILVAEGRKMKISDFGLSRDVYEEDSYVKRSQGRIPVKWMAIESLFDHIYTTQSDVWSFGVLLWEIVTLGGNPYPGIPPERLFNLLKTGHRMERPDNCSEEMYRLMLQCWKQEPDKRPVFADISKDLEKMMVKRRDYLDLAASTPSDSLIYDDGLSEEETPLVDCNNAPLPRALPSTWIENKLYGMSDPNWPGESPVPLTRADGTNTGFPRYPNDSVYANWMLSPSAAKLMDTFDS
c-src, sequence (P12931 whole entry, species assumed): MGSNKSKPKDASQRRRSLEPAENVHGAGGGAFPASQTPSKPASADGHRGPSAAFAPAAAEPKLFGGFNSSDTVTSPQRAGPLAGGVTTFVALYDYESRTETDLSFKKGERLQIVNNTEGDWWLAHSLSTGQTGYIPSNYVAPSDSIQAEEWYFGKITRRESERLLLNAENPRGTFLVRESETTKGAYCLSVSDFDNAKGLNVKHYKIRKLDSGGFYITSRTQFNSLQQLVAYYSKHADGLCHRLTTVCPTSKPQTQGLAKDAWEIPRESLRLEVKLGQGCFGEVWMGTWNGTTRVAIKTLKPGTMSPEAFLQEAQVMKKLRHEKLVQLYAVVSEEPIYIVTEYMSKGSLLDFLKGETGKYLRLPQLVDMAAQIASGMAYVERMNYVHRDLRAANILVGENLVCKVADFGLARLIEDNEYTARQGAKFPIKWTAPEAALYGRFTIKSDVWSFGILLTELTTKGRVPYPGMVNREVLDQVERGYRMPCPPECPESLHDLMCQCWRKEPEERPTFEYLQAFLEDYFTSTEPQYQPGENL
CDK-9/cyclinT1, sequence (P50750 whole entry, species assumed): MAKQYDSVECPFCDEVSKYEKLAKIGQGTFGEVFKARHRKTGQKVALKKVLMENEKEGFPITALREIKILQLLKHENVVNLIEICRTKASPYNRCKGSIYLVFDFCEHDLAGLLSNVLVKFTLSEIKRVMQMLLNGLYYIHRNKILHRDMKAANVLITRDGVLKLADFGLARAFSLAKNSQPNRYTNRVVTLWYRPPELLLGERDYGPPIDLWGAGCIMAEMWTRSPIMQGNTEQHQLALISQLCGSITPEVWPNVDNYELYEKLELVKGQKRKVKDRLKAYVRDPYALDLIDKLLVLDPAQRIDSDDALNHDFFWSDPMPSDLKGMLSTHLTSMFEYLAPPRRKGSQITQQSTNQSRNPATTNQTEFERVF
CDK-9/cyclinT1, sequence (O60563 whole entry partner, species assumed): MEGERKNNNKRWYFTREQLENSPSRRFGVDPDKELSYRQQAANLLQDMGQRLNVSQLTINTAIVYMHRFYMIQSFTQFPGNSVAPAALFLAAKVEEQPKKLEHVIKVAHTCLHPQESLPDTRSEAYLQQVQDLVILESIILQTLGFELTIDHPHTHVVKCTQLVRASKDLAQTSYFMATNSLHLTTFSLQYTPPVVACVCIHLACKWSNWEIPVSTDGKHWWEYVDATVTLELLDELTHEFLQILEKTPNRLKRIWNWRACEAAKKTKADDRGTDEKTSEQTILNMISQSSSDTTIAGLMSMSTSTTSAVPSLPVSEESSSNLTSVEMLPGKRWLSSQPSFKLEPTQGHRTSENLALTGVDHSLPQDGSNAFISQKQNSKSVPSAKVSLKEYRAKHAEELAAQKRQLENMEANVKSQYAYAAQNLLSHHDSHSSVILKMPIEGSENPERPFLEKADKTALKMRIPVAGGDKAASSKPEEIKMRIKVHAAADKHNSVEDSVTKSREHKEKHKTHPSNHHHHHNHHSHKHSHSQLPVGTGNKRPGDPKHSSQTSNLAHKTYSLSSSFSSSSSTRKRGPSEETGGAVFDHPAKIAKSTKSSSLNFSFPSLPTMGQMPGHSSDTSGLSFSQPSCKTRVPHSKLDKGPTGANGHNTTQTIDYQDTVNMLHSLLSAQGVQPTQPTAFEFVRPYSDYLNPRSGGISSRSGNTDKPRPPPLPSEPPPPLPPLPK
EphB4, sequence (P54760 16-987, species assumed): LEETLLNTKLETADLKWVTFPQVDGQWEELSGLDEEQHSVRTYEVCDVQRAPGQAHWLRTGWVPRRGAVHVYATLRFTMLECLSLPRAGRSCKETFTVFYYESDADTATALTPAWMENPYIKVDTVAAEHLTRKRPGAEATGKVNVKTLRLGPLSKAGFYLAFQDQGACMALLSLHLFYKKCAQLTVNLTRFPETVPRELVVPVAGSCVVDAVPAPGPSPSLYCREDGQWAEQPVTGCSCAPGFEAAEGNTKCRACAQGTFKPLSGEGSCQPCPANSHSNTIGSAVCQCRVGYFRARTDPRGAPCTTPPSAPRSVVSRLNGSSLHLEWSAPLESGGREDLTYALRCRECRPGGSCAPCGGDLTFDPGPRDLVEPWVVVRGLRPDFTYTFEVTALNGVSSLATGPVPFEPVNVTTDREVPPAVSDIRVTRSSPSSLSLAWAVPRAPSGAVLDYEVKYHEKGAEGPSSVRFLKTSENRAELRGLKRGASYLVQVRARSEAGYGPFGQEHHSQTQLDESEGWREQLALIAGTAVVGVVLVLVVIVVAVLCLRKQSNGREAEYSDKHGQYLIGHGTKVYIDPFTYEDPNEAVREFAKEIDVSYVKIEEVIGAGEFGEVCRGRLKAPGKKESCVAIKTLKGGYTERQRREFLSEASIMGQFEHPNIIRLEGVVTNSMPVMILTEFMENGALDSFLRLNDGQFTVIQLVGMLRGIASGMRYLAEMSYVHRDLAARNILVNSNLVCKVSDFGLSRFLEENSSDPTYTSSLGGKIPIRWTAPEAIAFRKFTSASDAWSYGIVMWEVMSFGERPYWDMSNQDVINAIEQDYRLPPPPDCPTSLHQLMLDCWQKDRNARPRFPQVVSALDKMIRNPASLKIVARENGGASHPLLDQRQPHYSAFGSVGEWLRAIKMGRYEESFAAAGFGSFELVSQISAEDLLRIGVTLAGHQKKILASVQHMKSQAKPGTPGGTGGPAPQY

Structure (SMILES): COc1cccc2c(C3=C(c4cn(C)c5cc(Cl)c(F)cc45)C(=O)NC3=O)coc12 [Compound 15, 3-(6-Chloro-5-fluoro-1-methyl-1H-indol-3-yl)-4-(7-methoxy-benzofuran-3-yl)-pyrrole-2,5-dione]
IC50 [1]: 42.7 µM
IC50 [2]: 10.7 µM
IC50 [3]: 27.2 µM
IC50 [4]: 61.6 µM
IC50 [5]: > 100 µM
IC50 [6]: 260 ± 32 nM
IC50 [7]: 59.5 µM
Neuroprotection against MPP+ (percent cell recovery, FIG. 2) [8]: neuroprotection of the cells
IC50 [9]: 108 µM
IC50 [10]: > 100 µM
IC50 [11]: 99000 nM
IC50 [12]: 46.2 µM
IC50 [13]: 165 µM

IC50 [1]: 74.5 µM
IC50 [2]: 33.6 µM
IC50 [14]: > 10 µM
IC50 [15]: > 10 µM
IC50 [16]: > 10 µM
IC50 [17]: 61.4 µM
IC50 [18]: > 10 µM
IC50 [19]: 3.98 µM
Ki [19]: 189 nM
IC50 [20]: > 10 µM
IC50 [21]: > 10 µM
IC50 ([22]; MIA PaCa-2, as reported in Gaisina et al. (2009) J. Med. Chem. 52(7), 1853-1863): 30 ± 2.2 µM
IC50 ([22]; MIA PaCa-2, 72 hrs, MTS): 30 µM
IC50 [23]: > 10 µM
IC50 [24]: > 10 µM
IC50 [26]: > 10 µM
IC50 [27]: > 10 µM
IC50 [28]: > 10 µM
IC50 [29]: > 10 µM
IC50 [30]: 43 ± 6.3 µM
IC50 [31]: > 10 µM
IC50 [32]: > 10 µM
Ability to pass the brain-blood barrier [33]: ability to pass the brain-blood barrier
IC50 [34]: > 10 µM
IC50 [35]: > 10 µM
IC50 [36]: > 10 µM
IC50 [37]: > 10 µM
Structure (SMILES): Cn1cc(C2=C(c3coc4ccccc34)C(=O)NC2=O)c2cc(Br)ccc21 [Compound 19, 3-Benzofuran-3-yl-4-(5-bromo-1-methyl-1H-indol-3-yl)-pyrrole-2,5-dione]
Inhibition of hyperactivity produced by amphetamine/chlordiazepoxide (locomotor activity) [25]: inhibited the hyperactivity

Source: US8207216B2, “Benzofuran-3-yl(indol-3-yl) maleimides as potent GSK3 inhibitors” (The Board of Trustees of the University of Illinois, priority 2006, dated 2012)
